Source: patent publication US8916593B2, “Alkoxy-substituted 2-aminopyridines as ALK inhibitors” (Pfizer Inc., priority 2010, dated 2014)

Legend:
[1] = target: T1, human recombinant wild-type ALK kinase domain (amino acids 1093-1411) (Homo sapiens, UniProt Q9UM73); assay: ALK enzyme assay 2 (microfluidic mobility shift assay); type: biochemical;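 also: kinase reaction run 1 h at room temperature, conversion quantified by electrophoretic separation of fluorescent peptide substrate from phosphorylated product, about 15-20% turnover without inhibitor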
T1 construct: ALK kinase domain (amino acids 1093-1411); made in house
T1 sequence (Q9UM73 1093-1411): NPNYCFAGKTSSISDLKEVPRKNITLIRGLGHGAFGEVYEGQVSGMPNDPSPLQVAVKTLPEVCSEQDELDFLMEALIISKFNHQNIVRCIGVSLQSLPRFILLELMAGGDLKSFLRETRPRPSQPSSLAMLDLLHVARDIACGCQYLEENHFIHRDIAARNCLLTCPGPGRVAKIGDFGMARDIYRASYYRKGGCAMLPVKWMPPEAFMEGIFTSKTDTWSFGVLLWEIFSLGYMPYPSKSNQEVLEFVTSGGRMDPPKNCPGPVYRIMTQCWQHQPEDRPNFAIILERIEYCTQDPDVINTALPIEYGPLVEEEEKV
Method: The reactions were incubated for 1 h at room temperature, stopped by the addition of 0.1 M EDTA, pH 8, and the extent of reactions (˜15-20% conversion with no inhibitor) was determined after electrophoretic separation of the fluorescently labeled peptide substrate and phosphorylated product on an LabChip EZ Reader II (Caliper Life Sciences, Hopkinton, Mass.).

[2] = target: EML4-ALK wt v1 in NIH-3T3 cells (Homo sapiens, UniProt Q9UM73)
Chain of EML4-ALK wt v1 in NIH-3T3 cells (Q9UM73 with tags, fused parts or gaps): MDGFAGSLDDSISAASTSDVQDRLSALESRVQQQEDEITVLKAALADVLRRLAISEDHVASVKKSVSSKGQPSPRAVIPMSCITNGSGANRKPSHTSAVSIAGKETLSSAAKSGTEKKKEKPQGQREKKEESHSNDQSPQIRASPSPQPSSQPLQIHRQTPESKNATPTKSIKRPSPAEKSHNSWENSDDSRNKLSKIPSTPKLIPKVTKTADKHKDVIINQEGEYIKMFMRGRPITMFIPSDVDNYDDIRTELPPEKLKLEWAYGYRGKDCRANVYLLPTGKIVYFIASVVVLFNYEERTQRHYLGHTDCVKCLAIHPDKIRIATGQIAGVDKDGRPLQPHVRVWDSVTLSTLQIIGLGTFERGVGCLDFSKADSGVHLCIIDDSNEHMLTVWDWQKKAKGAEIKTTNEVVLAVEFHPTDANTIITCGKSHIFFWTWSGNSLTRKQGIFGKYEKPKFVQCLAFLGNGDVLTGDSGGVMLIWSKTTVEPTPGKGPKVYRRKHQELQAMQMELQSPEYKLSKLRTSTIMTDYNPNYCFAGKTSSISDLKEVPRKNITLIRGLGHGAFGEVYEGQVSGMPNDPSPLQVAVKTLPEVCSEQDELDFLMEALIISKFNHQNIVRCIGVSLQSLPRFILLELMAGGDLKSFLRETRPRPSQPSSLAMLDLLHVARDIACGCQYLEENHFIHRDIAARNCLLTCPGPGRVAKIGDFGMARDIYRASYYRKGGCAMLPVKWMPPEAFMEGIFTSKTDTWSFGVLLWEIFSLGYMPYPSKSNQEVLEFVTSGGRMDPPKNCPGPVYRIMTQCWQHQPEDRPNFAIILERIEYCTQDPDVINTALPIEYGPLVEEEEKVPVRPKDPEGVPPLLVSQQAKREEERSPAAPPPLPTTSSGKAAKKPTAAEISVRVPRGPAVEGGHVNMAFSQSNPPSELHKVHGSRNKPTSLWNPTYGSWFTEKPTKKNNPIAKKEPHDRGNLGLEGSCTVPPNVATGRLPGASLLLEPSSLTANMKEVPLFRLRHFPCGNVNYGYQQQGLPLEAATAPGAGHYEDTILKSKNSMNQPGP

Row | Ki [1] [nM] | IC50 [2] [nM] | Compound
1 | 1.3 | 89.6 | Cc1cc(-c2cnc(N)c(O[C@H](C)c3cc(F)ccc3-n3nccn3)c2)cc(P(C)(C)=O)c1 [Example 114, 5-[3-(dimethylphosphoryl)-5-methylphenyl]-3-{(1R)-1-[5-fluoro-2-(2H-1,2,3-triazol-2-yl)phenyl]ethoxy}pyridin-2-amine]
2 | 0.68 | 21.5 | C[C@@H](Oc1cc(-c2cnc(CO)s2)cnc1N)c1cc(F)ccc1-n1nccn1 [Example 106, [5-(6-amino-5-{(1R)-1-[5-fluoro-2-(2H-1,2,3-triazol-2-yl)phenyl]ethoxy}pyridin-3-yl)-1,3-thiazol-2-yl]methanol]
3 | < 0.2 | 2.82 | Cc1nn(C2CCNC2=O)cc1-c1cnc(N)c(O[C@H](C)c2cc(F)ccc2-n2nccn2)c1 (stereo partly drawn) [Example 139, 3-[4-(6-amino-5-{(1R)-1-[5-fluoro-2-(2H-1,2,3-triazol-2-yl)phenyl]ethoxy}pyridin-3-yl)-3-methyl-1H-pyrazol-1-yl]pyrrolidin-2-one]
4 | 0.216 | 25.5 | CC(C)n1cc(-c2cnc(N)c(O[C@H](C)c3cc(F)ccc3-n3nccn3)c2)cn1 [Example 76, 3-{(1R)-1-[5-fluoro-2-(2H-1,2,3-triazol-2-yl)phenyl]ethoxy}-5-[1-(propan-2-yl)-1H-pyrazol-4-yl]pyridin-2-amine]
5 | 0.2 | 13.8 | Cc1nn(CS(C)(=O)=O)c(C)c1-c1cnc(N)c(O[C@H](C)c2cc(F)ccc2-n2nccn2)c1 [Example 95, 5-{3,5-dimethyl-1-[(methylsulfonyl)methyl]-1H-pyrazol-4-yl}-3-{(1R)-1-[5-fluoro-2-(2H-1,2,3-triazol-2-yl)phenyl]ethoxy}pyridin-2-amine]
6 | < 0.2 | 15.5 | CC1CNc2ncc(-c3cnc(N)c(O[C@H](C)c4cc(F)ccc4-n4nccn4)c3)cc2O1 (stereo partly drawn) [Example 79, 3-{(1R)-1-[5-fluoro-2-(2H-1,2,3-triazol-2-yl)phenyl]ethoxy}-5-(2-methyl-3,4-dihydro-2H-pyrido[3,2-b][1,4]oxazin-7-yl)pyridin-2-amine]
7 | 0.58 | 9.15 | C[C@@H](Oc1cc(-c2cnc(CS(C)(=O)=O)s2)cnc1N)c1cc(F)ccc1-n1nccn1 [Example 109, 3-{(1R)-1-[5-fluoro-2-(2H-1,2,3-triazol-2-yl)phenyl]ethoxy}-5-{2-[(methylsulfonyl)methyl]-1,3-thiazol-5-yl}pyridin-2-amine]
8 | 4.1 | 166 | C[C@@H](Oc1cc(-c2csc(CO)n2)cnc1N)c1cc(F)ccc1-n1nccn1 [Example 105, [4-(6-amino-5-{(1R)-1-[5-fluoro-2-(2H-1,2,3-triazol-2-yl)phenyl]ethoxy}pyridin-3-yl)-1,3-thiazol-2-yl]methanol]
9 | < 0.2 | 17.1 | Cc1nc(C(C)O)sc1-c1cnc(N)c(O[C@H](C)c2cc(F)ccc2-n2nccn2)c1 (stereo partly drawn) [Example 96, 1-[5-(6-amino-5-{(1R)-1-[5-fluoro-2-(2H-1,2,3-triazol-2-yl)phenyl]ethoxy}pyridin-3-yl)-4-methyl-1,3-thiazol-2-yl]ethanol]
10 | < 0.2 | 2.54 | Cc1nn([C@H]2CCS(=O)(=O)C2)c(C)c1-c1cnc(N)c(O[C@H](C)c2cc(F)ccc2-n2nccn2)c1 [Example 127, 5-{1-[(3S)-1,1-dioxidotetrahydrothiophen-3-yl]-3,5-dimethyl-1H-pyrazol-4-yl}-3-{(1R)-1-[5-fluoro-2-(2H-1,2,3-triazol-2-yl)phenyl]ethoxy}pyridin-2-amine]
11 | < 0.2 | 3.7 | Cc1c(-c2cnc(N)c(O[C@H](C)c3cc(F)ccc3-n3nccn3)c2)cnn1C1CCNCC1 [Example 125, 3-{(1R)-1-[5-fluoro-2-(2H-1,2,3-triazol-2-yl)phenyl]ethoxy}-5-[5-methyl-1-(piperidin-4-yl)-1H-pyrazol-4-yl]pyridin-2-amine]

Continued, molecule first:

Row | Compound | Ki [1] [nM] | IC50 [2] [nM]
12 | C[C@@H](N)c1ccc(-c2cnc(N)c(O[C@H](C)c3cc(F)ccc3-n3nccn3)c2)cc1 [Example 88, 5-{4-[(1R)-1-aminoethyl]phenyl}-3-{(1R)-1-[5-fluoro-2-(2H-1,2,3-triazol-2-yl)phenyl]ethoxy}-pyridin-2-amine] | < 0.2 | 2.61
13 | COc1ccc(F)cc1C(C)Oc1cc(-c2sc(CO)nc2C)cnc1N (centres unmarked) [Example 137, (5-{6-amino-5-[1-(5-fluoro-2-methoxyphenyl)ethoxy]pyridin-3-yl}-4-methyl-1,3-thiazol-2-yl)methanol] | 0.398 | 2.59
14 | C[C@@H](Oc1cc(-c2cccc3c2CNC3=O)cnc1N)c1cc(F)ccc1-n1nccn1 [Example 85, 4-(6-Amino-5-((R)-1-(5-fluoro-2-(2H-1,2,3-triazol-2-yl)phenyl)ethoxy)pyridin-3-yl)isoindolin-1-one] | 0.37 | 6.81
15 | Cc1n[nH]cc1-c1cnc(N)c(OC(C)c2cc(F)ccc2N2CCCC2=O)n1 (centres unmarked) [Example 65, 1-[2-(1-{[3-amino-6-(3-methyl-1H-pyrazol-4-yl)pyrazin-2-yl]oxy}ethyl)-4-fluorophenyl]pyrroli-din-2-one] | 5.1 | 193
16 | Cc1nc(C(C)(C)O)sc1-c1cnc(N)c(O[C@H](C)c2cc(F)ccc2-n2nccn2)n1 [Example 103, 2-[5-(5-amino-6-{(1R)-1-[5-fluoro-2-(2H-1,2,3-triazol-2-yl)phenyl]ethoxy}pyrazin-2-yl)-4-methyl-1,3-thiazol-2-yl]propan-2-ol] | < 0.2 | 15
17 | C[C@@H](Oc1cc(-c2ccc(OC3CCNCC3)nc2)cnc1N)c1cc(F)ccc1-n1nccn1 [Example 122, 5-{(1R)-1-[5-fluoro-2-(2H-1,2,3-triazol-2-yl)phenyl]ethoxy}-6′-(piperidin-4-yloxy)-3,3′-bipyridin-6-amine] | < 0.2 | 1.15
18 | COc1ccc(F)cc1[C@@H](C)Oc1nc(-c2ccc([C@H](C)N)cc2)cnc1N [Example 68, 5-{4-[(1S)-1-aminoethyl]phenyl}-3-[(1R)-1-(5-fluoro-2-methoxyphenyl)eth-oxy]pyrazin-2-amine] | < 0.2 | 4.5
19 | C[C@@H](Oc1nc(-c2cnn(C3CCNCC3)c2)cnc1N)c1cc(F)ccc1-n1nccn1 [Example 71, 3-{(1R)-1-[5-fluoro-2-(2H-1,2,3-triazol-2-yl)phenyl]ethoxy}-5-[1-(piperidin-4-yl)-1H-pyrazol-4-yl]pyrazin-2-amine] | < 0.2 | 30.3
20 | C[C@@H](Oc1cc(-c2ccc3c(c2)CNC3=O)cnc1N)c1cc(F)ccc1-n1nccn1 [Example 89, 5-(6-amino-5-{(1R)-1-[5-fluoro-2-(2H-1,2,3-triazol-2-yl)phenyl]ethoxy}pyridin-3-yl)-2,3-dihydro-1H-isoindol-1-one] | 0.22 | 43.6
21 | C[C@@H](Oc1cc(-c2cnc3c(c2)C(C)(C)C(=O)N3)cnc1N)c1cc(F)ccc1-n1nccn1 [Example 75, 5-(6-amino-5-{(1R)-1-[5-fluoro-2-(2H-1,2,3-triazol-2-yl)phenyl]ethoxy}pyridin-3-yl)-3,3-dimethyl-1,3-dihydro-2H-pyrrolo[2,3-b]pyridin-2-one] | 0.341 | 24.6
22 | C[C@@H](Oc1nc(-c2cccc(S(C)(=O)=O)c2)cnc1N)c1cc(F)ccc1-n1nccn1 [Example 72, 3-{(1R)-1-[5-fluoro-2-(2H-1,2,3-triazol-2-yl)phenyl]ethoxy}-5-[3-(methylsulfonyl)phen-yl]pyrazin-2-amine] | 0.24 | 10.4
